In brackets after ≈: the same amount, converted by molar mass. Like-named read-outs stand apart in the source and are kept apart here.
Columns and labels:
[1] = tested on: Staphylococcus aureus 209P; test: MIC, serial two-fold agar dilution; type: cell-based; conditions: nutrient agar
[2] = tested on: Staphylococcus aureus Smith; test: MIC, serial two-fold agar dilution; type: cell-based; conditions: nutrient agar
[3] = tested on: Bacillus subtilis PCI 219; test: MIC, serial two-fold agar dilution; type: cell-based; conditions: PCI219, nutrient agar
[4] = tested on: Micrococcus luteus PCI 1001; test: MIC, serial two-fold agar dilution; type: cell-based; conditions: PCI1001, nutrient agar
[5] = tested on: Micrococcus flavus D12; test: MIC, serial two-fold agar dilution; type: cell-based; conditions: nutrient agar
[6] = tested on: Escherichia coli NIHJ; test: MIC, serial two-fold agar dilution; type: cell-based; conditions: nutrient agar
[7] = tested on: Klebsiella pneumoniae D11; test: MIC, serial two-fold agar dilution; type: cell-based; conditions: nutrient agar
[8] = tested on: Pseudomonas aeruginosa D15; test: MIC, serial two-fold agar dilution; type: cell-based; conditions: nutrient agar
[9] = tested on: Candida albicans IAM 4888; test: MIC, serial two-fold agar dilution; type: cell-based; conditions: IAM4888, Sabouraud agar
[10] = tested on: Cryptococcus neoformans D49; test: MIC, serial two-fold agar dilution; type: cell-based; conditions: Sabouraud agar
[11] = tested on: Aspergillus fumigatus IAM 2530; test: MIC, serial two-fold agar dilution; type: cell-based; conditions: IAM2530, Sabouraud agar
[12] = tested on: Trichophyton mentagrophytes D155; test: MIC, serial two-fold agar dilution; type: cell-based; conditions: Sabouraud agar
[13] = tested on: Clostridium difficile; test: MIC, serial two-fold agar dilution; type: cell-based; conditions: Clostridioides difficile; GAM agar, anaerobe
[14] = tested on: gram-negative bacteria and fungi; test: antibacterial/antifungal activity (MIC), summary; type: cell-based
[15] = tested on: P388, L1210 and B16 tumors; test: antitumor activity in mice, summary over P388, L1210 and B16; type: in vivo, BDF1 mice; conditions: experimental mouse tumors
[16] = solubility; type: physicochemical; conditions: acidic water
[17] = tested on: aerobic gram-positive bacteria and anaerobic bacteria; test: antibacterial activity, summary; type: cell-based
Description: Nutrient agar medium was used for gram-positive and gram-negative bacteria, GAM agar medium for anaerobes and Sabouraud agar medium for fungi.

[18] = tested on: Bacteroides fragilis; test: MIC, serial two-fold agar dilution; type: cell-based; conditions: GAM agar, anaerobe
[19] = tested on: Clostridium perfringens; test: microbe, parasite or virus in culture; type: cell-based
[20] = tested on: Propionibacterium acnes; test: MIC, serial two-fold agar dilution; type: cell-based; conditions: Cutibacterium acnes; GAM agar, anaerobe
[21] = tested on: lymphocytic leukemia P388; conditions: qd 1→9
[22] = tested on: lymphoid leukemia L1210; conditions: qd 1→9
[23] = tested on: melanotic melanoma B16; conditions: qd 1→9
[24] = tested on: melanotic melanoma B16; test: antitumor activity, B16 melanoma in mice; conditions: qd 1→9
[25] = tested on: lymphocytic leukemia P388; test: antitumor activity, P388 leukemia in mice; conditions: qd 1→9
[26] = tested on: lymphoid leukemia L1210; test: antitumor activity, L1210 leukemia in mice; conditions: qd 1→9

## Cc1ccc2oc(=O)c3c(O)c4cccc(O[C@@H]5O[C@H](C)[C@H](O)[C@](C)(O)[C@H]5O)c4c4oc(=O)c1c2c34 [BBM-2478B]
[1]
  MIC: 3.1 µg/mL (≈ 6.27 µM)
[2]
  MIC: 6.3 µg/mL (≈ 12.7 µM)
[3]
  MIC: 0.8 µg/mL (≈ 1.62 µM)
[4]
  MIC: 3.1 µg/mL (≈ 6.27 µM)
[5]
  MIC: 1.6 µg/mL (≈ 3.24 µM)
[6]
  MIC: > 100 µg/mL
[7]
  MIC: > 100 µg/mL
[8]
  MIC: > 100 µg/mL
[9]
  MIC: > 100 µg/mL
[10]
  MIC: > 100 µg/mL
[11]
  MIC: > 100 µg/mL
[12]
  MIC: > 100 µg/mL
[13]
  MIC: 25 µg/mL (≈ 50.6 µM)
[14]
  activity against gram-negative bacteria and fungi: inactive
[15]
  antitumor activity: devoid of antitumor activity
[16]
  solubility in acidic water: insoluble
[17]
  antibacterial activity: potent antibacterial activity

## CO[C@H]1[C@@H](O)[C@@H](C)O[C@H](O[C@H]2[C@H](Oc3cccc4c(O)c5c(=O)oc6ccc(C)c7c(=O)oc(c34)c5c67)O[C@H](C)[C@H](O)[C@@H]2O)[C@@H]1O [Chartreusin, reference compound]
[1]
  MIC: 3.1 µg/mL (≈ 4.84 µM)
[2]
  MIC: 6.3 µg/mL (≈ 9.83 µM)
[3]
  MIC: 0.4 µg/mL (≈ 0.624 µM)
[4]
  MIC: 0.8 µg/mL (≈ 1.25 µM)
[5]
  MIC: 0.4 µg/mL (≈ 0.624 µM)
[6]
  MIC: > 100 µg/mL
[7]
  MIC: > 100 µg/mL
[8]
  MIC: > 100 µg/mL
[9]
  MIC: > 100 µg/mL
[10]
  MIC: > 100 µg/mL
[11]
  MIC: > 100 µg/mL
[12]
  MIC: > 100 µg/mL
[18]
  MIC: 6.3 µg/mL (≈ 9.83 µM)
[19]
  MIC: 1.6 µg/mL (≈ 2.5 µM)
[20]
  MIC: 3.1 µg/mL (≈ 4.84 µM)
[14]
  activity against gram-negative bacteria and fungi: inactive
[21]; 0.1 mg/kg/day ip
  MST: 9.0 days
[21]; 0.3 mg/kg/day ip
  MST: 10.5 days
[21]; 10 mg/kg/day ip
  MST: 19.5 days
[22]; 0.1 mg/kg/day ip
  MST: 8.0 days
[22]; 0.3 mg/kg/day ip
  MST: 8.0 days
[22]; 1 mg/kg/day ip
  MST: 9.0 days
[22]; 3 mg/kg/day ip
  MST: 9.0 days
[22]; 10 mg/kg/day ip
  MST: 11.5 days
[23]; 0.3 mg/kg/day ip
  MST: 14.0 days
[23]; 1 mg/kg/day ip
  MST: 16.0 days
[23]; 3 mg/kg/day ip
  MST: 20.5 days
[23]; 10 mg/kg/day ip
  MST: 25.0 days
[24]; 0.3 mg/kg/day ip
  Average wt. change on day 5: +1.8 g
  Survivors on day 5: 6/6
  Survivors on day 45: 0/6
  T/C: 100%
[24]; 1 mg/kg/day ip
  Average wt. change on day 5: +2.3 g
  Survivors on day 5: 6/6
  T/C: 114%
[24]; 3 mg/kg/day ip
  Average wt. change on day 5: +2.3 g
  Survivors on day 5: 6/6
  Survivors on day 45: 0/6
[24]; 10 mg/kg/day ip
  Average wt. change on day 5: +1.7 g
  Survivors on day 5: 6/6
  Survivors on day 45: 0/6
[25]; 0.1 mg/kg/day ip
  Average wt. change on day 5: +2.8 g
  Survivors on day 5: 6/6
  Survivors on day 45: 0/6
  T/C: 100%
[25]; 0.3 mg/kg/day ip
  Average wt. change on day 5: +2.0 g
  Survivors on day 5: 6/6
  Survivors on day 45: 0/6
  T/C: 117%
[25]; 1 mg/kg/day ip
  Average wt. change on day 5: +1.3 g
  MST: 14.0 days
  Survivors on day 5: 6/6
  Survivors on day 45: 0/6
[25]; 3 mg/kg/day ip
  Average wt. change on day 5: +1.5 g
  MST: 15.0 days
  Survivors on day 5: 6/6
  Survivors on day 45: 0/6
[25]; 10 mg/kg/day ip
  Average wt. change on day 5: +1.3 g
  Survivors on day 5: 6/6
  Survivors on day 45: 0/6
[26]; 0.1 mg/kg/day ip
  Average wt. change on day 5: +3.1 g
  Survivors on day 5: 6/6
  Survivors on day 45: 0/6
  T/C: 100%
[26]; 0.3 mg/kg/day ip
  Average wt. change on day 5: +3.2 g
  Survivors on day 5: 6/6
  Survivors on day 45: 0/6
  T/C: 100%
[26]; 1 mg/kg/day ip
  Average wt. change on day 5: +1.9 g
  Survivors on day 5: 6/6
  Survivors on day 45: 0/6
  T/C: 113%
[26]; 3 mg/kg/day ip
  Average wt. change on day 5: +1.4 g
  Survivors on day 5: 6/6
  Survivors on day 45: 0/6
  T/C: 113%
[26]; 10 mg/kg/day ip
  Average wt. change on day 5: +1.3 g
  Survivors on day 5: 6/6
  Survivors on day 45: 0/6
